Key:
[1] = in vivo; cited from earlier work
[2] = in vivo; cited from earlier work; remark: listed apart in the source
[3] = tested on: cancer cells (in cancer tissue sections); test: fermentation metabolism of cancer cells with different sugars as food substrate (Warburg); type: cell-based; conditions: sugar as food substrate
Text: On the other hand, tests carried out by the Nobel prizewinner Otto Heinrich Warburg have shown that the fermentation metabolism of cancer cells (in cancer tissue sections) progresses most effectively with glucose as a food substrate, specifically at a rate of 23.9 consumed units per unit of time, whereas, with the substrate fructose, it progresses less effectively by a factor of 7 (rate 3.3), and, with galactose, progresses even less effectively by a factor of 18 (rate 1.3). […] Galactose should therefore be a key sugar source in the diet of cancer patients.

[4] = tested on: cancer cells (in cancer tissue sections); conditions: sugar as food substrate; cited from earlier work

SMILES | glycemic index (GI) [1] | extent digested directly by the human body [2] | remaining fraction broken down by the intestinal flora [2] | factor by which fermentation progresses less effectively than with glucose [3] | rate of fermentation metabolism [4]
O=C[C@H](O)[C@H](O)[C@H](O)CO [Ribose] | negative |  |  |  | 
O=C(CO)[C@@H](O)[C@@H](O)[C@H](O)CO [Tagatose] | 3 | approximately 20% | 80% |  | 
O=C(CO)[C@@H](O)[C@H](O)[C@H](O)CO [fructose, reference compound] |  |  |  | 7 | 3.3 consumed units per unit of time
O=C[C@H](O)[C@@H](O)[C@@H](O)[C@H](O)CO [galactose] | 20 |  |  | 18 | 1.3 consumed units per unit of time
O=C[C@H](O)[C@@H](O)[C@H](O)[C@H](O)CO [glucose, reference compound] | 100 |  |  |  | 23.9 consumed units per unit of time
OC[C@H]1O[C@H](OC[C@H]2OC(O)(CO)[C@@H](O)[C@@H]2O)[C@H](O)[C@@H](O)[C@@H]1O (some centres unmarked) [isomaltulose] | 32 |  |  |  | 
OC[C@H]1O[C@@](CO)(O[C@H]2O[C@H](CO)[C@@H](O)[C@H](O)[C@H]2O)[C@@H](O)[C@@H]1O [sucrose, reference compound] | 65 |  |  |  | 
OC[C@H]1O[C@H](O[C@H]2O[C@H](CO)[C@@H](O)[C@H](O)[C@H]2O)[C@H](O)[C@@H](O)[C@@H]1O [trehalose] | ~32 |  |  |  | 

— US10905139B2, “Refreshing beverage” (priority 2011, dated 2021)
